In patent US20220184222A1, “BICYCLE TOXIN CONJUGATES AND USES THEREOF” (BicycleTx Limited, priority 2019, published 2022):
“And” between values parts separate entries of the source, which are not always exact repeats. Identical values can stand only once. “Also recorded” adds a separate entry of the source. Starred links: 1 amine or outer side, 2 acyl side, 3 side chain; linkers in the order of their positions; H or OH if unused. Non-standard residues stand in square brackets, D forms with d. Residues, ends and D or L forms follow the SMILES beside them. *: point of attachment. Dolaproine = CO[C@@H]([C@@H]1CCCN1)[C@@H](C)C(=O)O; Dil = CC[C@H](C)[C@H](NC)[C@@H](CC(=O)O)OC; PABC = O=C(OCc1ccc(N[*:1])cc1)[*:2]; X1 = O=C(CCCC(=O)*)ON1C(=O)CCC1=O; X2 = C[C@@H](N*)[C@@H](O)c1ccccc1; Cit = NC(=O)NCCC[C@H](N)C(=O)O; NMeV = CN[C@H](C(=O)O)C(C)C

System: PC-3 xenograft
Assay: In vivo efficacy in PC-3 xenograft, female BALB/c nude mice (Example 2)
Set-up: species or system Mus Musculus
Procedure: The objective of the research was to evaluate the in vivo anti-tumor efficacy of BT5528 and BCY10188 in treatment of PC-3 xenograft model in BALB/c nude mice.
Each mouse was inoculated subcutaneously at the right flank with PC-3 tumor cells ([…]) in 0.2 ml of PBS for tumor development. 60 animals were randomized when the average tumor volume reached 464 mm^3. The test article administration and the animal numbers in each group were shown in the experimental design table.
1) 0.1 mg/mL solution (with 50 mM Acetate 10% sucrose pH 5 buffer) was prepared before the operation. 2) The syringe loaded with dosing solution was fixed on the Syringe Pump Machine, then a needle was bound to the pipe jointed with the syringe. 3) The injection volume (10 ml/kg, calculated based on the bodyweight), injection time (1 h for this study), and infusion rate was set to the Pump, then a quick running was conducted to check the working condition of the whole system. 4) The mouse was fixed comfortably, then the operator injected the syringe needle into the caudal vein, and fixed the mouse tail as well as the needle firmly and stably(no need anesthesia for less than 1 h) 5) Then the infusion was started, and the operator kept monitoring the dosing condition till the end.
1) 0.130 mg/mL solution (with 50 mM Acetate 10% sucrose pH 5 buffer) was prepared before the operation. 2) The pump was fully filled with the dosing solution (˜200 μl, see the hand book of the Alzet pump 2001D). 3) The animal in group 12 was anesthetized with 80 mg/kg pentobarbital sodium, and the pump was embedded under the skin of left side of mouse. 4) 26 h later, the animals were anesthetized with pentobarbital sodium, and the pump was taken out. (The infusion rate is not stable at the first 1-3 h, thus the pump was taken out at 26 h instead of 24 h to ensure that all solution was pumped-out).
The major endpoint was to see if the tumor growth could be delayed or mice could be cured. Tumor volume was measured 3 times per week in two dimensions using a caliper, and the volume was expressed in mm^3 using the formula: V=0.5 a×b^2 where a and b are the long and short diameters of the tumor, respectively. The tumor size was then used for calculations of T/C value. The T/C value (in percent) is an indication of antitumor effectiveness; T and C are the mean volumes of the treated and control groups, respectively, on a given day.
TGI was calculated for each group using the formula: TGI (%)=[1−(Ti−T0)/(Vi−V0)]×100; Ti is the average tumor volume of a treatment group on a given day, T0 is the average tumor volume of the treatment group on the day of treatment start, Vi is the average tumor volume of the vehicle control group on the same day with Ti, and V0 is the average tumor volume of the vehicle group on the day of treatment start.
Tumor growth inhibition rate of BT5528 and BCY10188 in the PC-3 xenograft model was calculated based on tumor volume measurements on day 17 after the start of treatment.

[1] = 1 mpk iv 1 h infusion qw*2 weeks, day 17
[2] = 1 mpk sc 24 h minipump qw*2 weeks, day 17

## CC[C@H](C)[C@@H]([C@@H](CC(=O)N1CCC[C@H]1[C@H](OC)[C@@H](C)C(=O)N[C@H](C)[C@@H](O)c1ccccc1)OC)N(C)C(=O)[C@@H](NC(=O)[C@H](C(C)C)N(C)C(=O)OCc1ccc(NC(=O)[C@H](CCCNC(N)=O)NC(=O)[C@@H](NC(=O)CCCC(=O)ON2C(=O)CCC2=O)C(C)C)cc1)C(C)C [BT5528] (X1-V[Cit][PABC][NMeV]V[Dil][Dolaproine]-X2)
1 mg/kg qw*2 weeks via intravenous bolus, intravenous infusion or subcutaneous ALZET pump
  tumor relapse after ceasing the treatment: obvious relapse 2 weeks later after ceasing the treatment
1 mg/kg, iv bolus (QW×2 and QW×4), 1 h iv infusion (QW×2), 24 h subcutaneous osmotic pump (QW×2)
  efficacy across dosing paradigms: equivalent efficacy with a wide range of dosing paradigms; also recorded: comparable anti-tumor activity
0.11 mpk iv qw*4 weeks, day 0
  Tumor volume: 463 mm^3
0.11 mpk iv qw*4 weeks, day 2
  Tumor volume: 634 mm^3
0.11 mpk iv qw*4 weeks, day 4
  Tumor volume: 725 mm^3
0.11 mpk iv qw*4 weeks, day 6
  Tumor volume: 861 mm^3
0.11 mpk iv qw*4 weeks, day 8
  Tumor volume: 1172 mm^3
0.11 mpk iv qw*4 weeks, day 10
  Tumor volume: 1247 mm^3
0.11 mpk iv qw*4 weeks, day 13
  Tumor volume: 1333 mm^3
0.11 mpk iv qw*4 weeks, day 15
  Tumor volume: 1568 mm^3
0.11 mpk iv qw*4 weeks, day 17
  T/C: 88.1%
  TGI: 15.3%
  Tumor volume: 1780 mm^3 and 1780 ± 116 mm^3
0.33 mpk iv qw*4 weeks, day 0
  Tumor volume: 463 mm^3
0.33 mpk iv qw*4 weeks, day 2
  Tumor volume: 597 mm^3
0.33 mpk iv qw*4 weeks, day 4
  Tumor volume: 530 mm^3
0.33 mpk iv qw*4 weeks, day 6
  Tumor volume: 525 mm^3
0.33 mpk iv qw*4 weeks, day 8
  Tumor volume: 584 mm^3
0.33 mpk iv qw*4 weeks, day 10
  Tumor volume: 536 mm^3
0.33 mpk iv qw*4 weeks, day 13
  Tumor volume: 493 mm^3
0.33 mpk iv qw*4 weeks, day 15
  Tumor volume: 544 mm^3
0.33 mpk iv qw*4 weeks, day 17
  T/C: 23.9%
  TGI: 98.8%
  Tumor volume: 482 mm^3 and 482 ± 22 mm^3
1 mpk iv 1 h infusion qw*2 weeks, day 0
  Tumor volume: 463 mm^3
1 mpk iv 1 h infusion qw*2 weeks, day 2
  Tumor volume: 538 mm^3
1 mpk iv 1 h infusion qw*2 weeks, day 4
  Tumor volume: 539 mm^3
1 mpk iv 1 h infusion qw*2 weeks, day 6
  Tumor volume: 467 mm^3
1 mpk iv 1 h infusion qw*2 weeks, day 8
  Tumor volume: 399 mm^3
1 mpk iv 1 h infusion qw*2 weeks, day 10
  Tumor volume: 330 mm^3
1 mpk iv 1 h infusion qw*2 weeks, day 13
  Tumor volume: 260 mm^3
1 mpk iv 1 h infusion qw*2 weeks, day 15
  Tumor volume: 213 mm^3
[1]
  T/C: 10.3%
  TGI: 116.4%
  Tumor volume: 209 mm^3 and 209 ± 27 mm^3
1 mpk iv qw*2 weeks, day 0
  Tumor volume: 464 mm^3
1 mpk iv qw*2 weeks, day 2
  Tumor volume: 572 mm^3
1 mpk iv qw*2 weeks, day 4
  Tumor volume: 529 mm^3
1 mpk iv qw*2 weeks, day 6
  Tumor volume: 496 mm^3
1 mpk iv qw*2 weeks, day 8
  Tumor volume: 427 mm^3
1 mpk iv qw*2 weeks, day 10
  Tumor volume: 361 mm^3
1 mpk iv qw*2 weeks, day 13
  Tumor volume: 269 mm^3
1 mpk iv qw*2 weeks, day 15
  Tumor volume: 239 mm^3
1 mpk iv qw*2 weeks, day 17
  T/C: 10.6%
  TGI: 116.0%
  Tumor volume: 214 mm^3 and 214 ± 33 mm^3
1 mpk iv qw*4 weeks, day 0
  Tumor volume: 463 mm^3
1 mpk iv qw*4 weeks, day 2
  Tumor volume: 610 mm^3
1 mpk iv qw*4 weeks, day 4
  Tumor volume: 579 mm^3
1 mpk iv qw*4 weeks, day 6
  Tumor volume: 538 mm^3
1 mpk iv qw*4 weeks, day 8
  Tumor volume: 476 mm^3
1 mpk iv qw*4 weeks, day 10
  Tumor volume: 408 mm^3
1 mpk iv qw*4 weeks, day 13
  Tumor volume: 341 mm^3
1 mpk iv qw*4 weeks, day 15
  Tumor volume: 299 mm^3
1 mpk iv qw*4 weeks, day 17
  T/C: 14.5%
  TGI: 111%
  Tumor volume: 282 mm^3 and 293 mm^3 and 293 ± 66 mm^3
1 mpk sc 24 h minipump qw*2 weeks, day 0
  Tumor volume: 464 mm^3
1 mpk sc 24 h minipump qw*2 weeks, day 2
  Tumor volume: 517 mm^3
1 mpk sc 24 h minipump qw*2 weeks, day 4
  Tumor volume: 64 mm^3
1 mpk sc 24 h minipump qw*2 weeks, day 6
  Tumor volume: 480 mm^3
1 mpk sc 24 h minipump qw*2 weeks, day 8
  Tumor volume: 443 mm^3
1 mpk sc 24 h minipump qw*2 weeks, day 10
  Tumor volume: 393 mm^3
1 mpk sc 24 h minipump qw*2 weeks, day 13
  Tumor volume: 298 mm^3
1 mpk sc 24 h minipump qw*2 weeks, day 15
  Tumor volume: 249 mm^3
[2]
  T/C: 11.1%
  TGI: 115.5%
  Tumor volume: 223 mm^3 and 223 ± 46 mm^3
3 mpk iv qw*4 weeks, day 0
  Tumor volume: 464 mm^3
3 mpk iv qw*4 weeks, day 2
  Tumor volume: 566 mm^3
3 mpk iv qw*4 weeks, day 4
  Tumor volume: 526 mm^3
3 mpk iv qw*4 weeks, day 6
  Tumor volume: 462 mm^3
3 mpk iv qw*4 weeks, day 8
  Tumor volume: 377 mm^3
3 mpk iv qw*4 weeks, day 10
  Tumor volume: 320 mm^3
3 mpk iv qw*4 weeks, day 13
  Tumor volume: 249 mm^3
3 mpk iv qw*4 weeks, day 15
  Tumor volume: 243 mm^3
3 mpk iv qw*4 weeks, day 17
  T/C: 10.2%
  TGI: 116.7%
  Tumor volume: 205 mm^3 and 205 ± 14 mm^3
